What was measured:
[1] = molecular target: T1, JMJD2C (Homo sapiens, UniProt Q9H3R0); assay: JMJD2C in vitro enzyme inhibition assay (TR-FRET); assay type: biochemical
T1 construct: purchased BPS Bioscience 50105
T1 sequence (Q9H3R0 2-372): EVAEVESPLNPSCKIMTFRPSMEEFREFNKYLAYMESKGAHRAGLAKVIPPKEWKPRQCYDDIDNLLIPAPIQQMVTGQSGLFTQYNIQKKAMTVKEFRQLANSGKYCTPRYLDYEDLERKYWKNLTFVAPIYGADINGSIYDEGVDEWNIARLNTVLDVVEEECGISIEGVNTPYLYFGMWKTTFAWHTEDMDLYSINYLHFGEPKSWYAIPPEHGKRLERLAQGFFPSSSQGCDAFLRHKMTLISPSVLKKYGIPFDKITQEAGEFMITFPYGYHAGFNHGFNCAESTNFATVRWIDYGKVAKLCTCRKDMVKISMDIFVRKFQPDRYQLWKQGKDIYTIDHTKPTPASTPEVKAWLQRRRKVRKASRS
Summary of the method: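 Baculovirus-expressed human JMJD2C (AA 2-372) at 0.3 nM demethylated 300 nM biotin-H3K9me3 peptide with 2 μM alpha-ketoglutarate in HEPES pH 7.3 containing ascorbate and Fe(II), 30 min at room temperature. EDTA-stopped product was read by TR-FRET with Eu-anti-H3K9me2 and streptavidin-APC; 665/615 ratios from 11-point dilutions gave IC50.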

[2] = molecular target: T2, Jarid1B (Homo sapiens, UniProt Q9UGL1); assay: Jarid1B in vitro enzyme inhibition assay (TR-FRET); assay type: biochemical
T2 construct: purchased BPS Bioscience or custom made by MolecularThroughput 50121
T2 sequence (Q9UGL1 2-751): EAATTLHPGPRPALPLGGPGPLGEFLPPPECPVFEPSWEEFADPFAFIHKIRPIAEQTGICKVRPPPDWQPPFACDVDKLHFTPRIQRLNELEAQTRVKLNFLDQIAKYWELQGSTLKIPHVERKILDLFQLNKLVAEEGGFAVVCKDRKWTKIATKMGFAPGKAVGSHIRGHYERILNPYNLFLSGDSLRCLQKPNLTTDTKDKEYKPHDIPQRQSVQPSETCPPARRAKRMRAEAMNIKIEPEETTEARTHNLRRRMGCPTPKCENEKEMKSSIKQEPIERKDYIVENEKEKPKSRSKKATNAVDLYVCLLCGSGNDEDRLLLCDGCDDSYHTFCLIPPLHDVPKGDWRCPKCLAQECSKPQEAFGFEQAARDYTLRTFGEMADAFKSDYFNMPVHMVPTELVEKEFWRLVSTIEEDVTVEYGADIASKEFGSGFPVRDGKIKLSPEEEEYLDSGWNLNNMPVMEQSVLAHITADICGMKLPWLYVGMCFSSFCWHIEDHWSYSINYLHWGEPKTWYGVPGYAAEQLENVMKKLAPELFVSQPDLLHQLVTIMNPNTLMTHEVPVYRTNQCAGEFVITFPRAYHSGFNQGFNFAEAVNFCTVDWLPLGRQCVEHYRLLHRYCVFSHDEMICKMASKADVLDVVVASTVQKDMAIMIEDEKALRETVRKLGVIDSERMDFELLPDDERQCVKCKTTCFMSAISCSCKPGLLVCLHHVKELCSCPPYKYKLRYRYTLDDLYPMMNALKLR
Summary of the method: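 Jarid1B (AA 2-751, baculovirus-expressed) at 0.8 nM with 300 nM biotin-H3K4me3 peptide and 2 μM α-ketoglutarate in HEPES pH 7.3 with ascorbate and Fe(II), 30 min at room temperature. Stopped with EDTA; H3K4me1-2 product detected by TR-FRET (665/615 ratio) and IC50 fitted from 11-point dilutions.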

Row | Compound | IC50 [1] [nM] | IC50 [2] [nM]
1 | CC(C)CCOc1nc(O)c2ccncc2n1 [Example 15, 2-(3-methylbutoxy)pyrido[3,4-d]pyrimidin-4-ol] | 100 to 1000 | ≤ 100
2 | CCC(C)COc1nc(O)c2ccncc2n1 (stereo not drawn) [Example 16, 2-(2-methylbutoxy)pyrido[3,4-d]pyrimidin-4-ol] | 100 to 1000 | 100 to 1000
3 | Oc1nc(OCCc2ccccc2)nc2cnccc12 [Example 18, 2-(2-phenylethoxy)pyrido[3,4-d]pyrimidin-4-ol] | 100 to 1000 | ≤ 100
4 | CC(Cc1ccccc1)Oc1nc(O)c2ccncc2n1 (stereo not drawn) [Example 19, 2-(1-phenylpropan-2-yloxy)pyrido[3,4-d]pyrimidin-4-ol] | 1000 to 10000 | 1000 to 10000
5 | Oc1nc(OCCCC(F)(F)F)nc2cnccc12 [Example 20, 2-(4,4,4-trifluorobutoxy)pyrido[3,4-d]pyrimidin-4-ol] | 100 to 1000 | ≤ 100
6 | CN(C)CCCOc1nc(O)c2ccncc2n1 [Example 21, 2-[3-(dimethylamino)propoxy]pyrido[3,4-d]pyrimidin-4-ol] | 100 to 1000 | 1000 to 10000
7 | COCCOc1nc(O)c2ccncc2n1 [Example 22, 2-(2-methoxyethoxy)pyrido[3,4-d]pyrimidin-4-ol] | 100 to 1000 | 100 to 1000
8 | Cn1cnc(-c2nccc3c(O)nc(OCc4ccccc4C(F)(F)F)nc23)c1 [Example 107, 8-(1-methyl-1H-imidazol-4-yl)-2-{[2-(trifluoromethyl)phenyl]methoxy}pyrido[3,4-d]pyrimidin-4-ol] | 100 to 1000 | ≤ 100
9 | Cn1cnc(-c2nccc3c(O)nc(O[C@H](c4ccccc4)C(F)(F)F)nc23)c1 [Example 108, 8-(1-methyl-1H-imidazol-4-yl)-2-[(1R)-2,2,2-trifluoro-1-phenylethoxy]pyrido[3,4-d]pyrimidin-4-ol] | 100 to 1000 | 1000 to 10000
10 | Cn1cnc(-c2nccc3c(O)nc(O[C@@H](c4ccccc4)C(F)(F)F)nc23)c1 [Example 109, 8-(1-methyl-1H-imidazol-4-yl)-2-[(1S)-2,2,2-trifluoro-1-phenylethoxy]pyrido[3,4-d]pyrimidin-4-ol] | 100 to 1000 | 1000 to 10000
11 | CCC(Oc1nc(O)c2ccnc(-c3cn(C)cn3)c2n1)C(F)(F)F (stereo not drawn) [Example 110, 8-(1-methyl-1H-imidazol-4-yl)-2-[(1,1,1-trifluorobutan-2-yl)oxy]pyrido[3,4-d]pyrimidin-4-ol] | 1000 to 10000 | 100 to 1000
12 | Cn1cnc(-c2nccc3c(O)nc(OCc4ccc(C(F)(F)F)cc4)nc23)c1 [Example 111, 8-(1-methyl-1H-imidazol-4-yl)-2-{[4-(trifluoromethyl)phenyl]methoxy}pyrido[3,4-d]pyrimidin-4-ol] | 100 to 1000 | 100 to 1000
13 | Cn1cnc(-c2nccc3c(O)nc(OCc4ccc(Cl)cc4)nc23)c1 [Example 112, 2-[(4-chlorophenyl)methoxy]-8-(1-methyl-1H-imidazol-4-yl)pyrido[3,4-d]pyrimidin-4-ol] | 100 to 1000 | ≤ 100

Second part, the compound after the results:

Row | IC50 [1] [nM] | IC50 [2] [nM] | Compound
14 | ≤ 100 | ≤ 100 | O=S(=O)(C1CC1)N1CCCC(n2cc(Oc3nc(O)c4ccncc4n3)cn2)C1 (stereo in doubt) [Example 151, 2-({1-[(3S)-1-(cyclopropanesulfonyl)piperidin-3-yl]-1H-pyrazol-4-yl}oxy)pyrido[3,4-d]pyrimidin-4-ol]
15 | ≤ 100 | ≤ 100 | Oc1nc(Oc2cnn(C3CCCN(c4ccc(F)cc4)C3)c2)nc2cnccc12 (stereo in doubt) [Example 169, 2-({1-[(3R)-1-(4-fluorophenyl)piperidin-3-yl]-1H-pyrazol-4-yl}oxy)pyrido[3,4-d]pyrimidin-4-ol]
16 | 100 to 1000 | 100 to 1000 | Oc1nc(OCCC(F)(F)F)nc2cnccc12 [Example 13, 2-(3,3,3-trifluoropropoxy)pyrido[3,4-d]pyrimidin-4-ol]
17 | 100 to 1000 | 100 to 1000 | CC(C)COc1nc(O)c2ccncc2n1 [Example 14, 2-(2-methylpropoxy)pyrido[3,4-d]pyrimidin-4-ol]
18 | 100 to 1000 | 100 to 1000 | CC(COc1nc(O)c2ccncc2n1)c1ccccc1 (stereo not drawn) [Example 17, 2-(2-phenylpropoxy)pyrido[3,4-d]pyrimidin-4-ol]
19 | ≤ 100 | ≤ 100 | Cn1cnc(-c2nccc3c(O)nc(Oc4ccc(Cl)c(Cl)c4)nc23)c1 [Example 113, 2-(3,4-dichlorophenoxy)-8-(1-methyl-1H-imidazol-4-yl)pyrido[3,4-d]pyrimidin-4-ol]
20 | ≤ 100 | ≤ 100 | Oc1nc(Oc2ccc(Cl)c(Cl)c2)nc2cnccc12 [Example 114, 2-(3,4-dichlorophenoxy)pyrido[3,4-d]pyrimidin-4-ol]
21 | ≤ 100 | ≤ 100 | CCC(c1ccccc1)n1cc(Oc2nc(O)c3ccncc3n2)cn1 (stereo not drawn) [Example 115, 2-{[1-(1-phenylpropyl)-1H-pyrazol-4-yl]oxy}pyrido[3,4-d]pyrimidin-4-ol]
22 | ≤ 100 | ≤ 100 | Oc1nc(Oc2cnn(C(c3ccccc3)C3CC3)c2)nc2cnccc12 (stereo not drawn) [Example 116, 2-({1-[cyclopropyl(phenyl)methyl]-1H-pyrazol-4-yl}oxy)pyrido[3,4-d]pyrimidin-4-ol]
23 | ≤ 100 | ≤ 100 | C[C@H](c1ccccc1)n1cc(Oc2nc(O)c3ccncc3n2)cn1 [Example 117, 2-({1-[(1R)-1-phenylethyl]-1H-pyrazol-4-yl}oxy)pyrido[3,4-d]pyrimidin-4-ol]
24 | ≤ 100 | ≤ 100 | C[C@@H](c1ccccc1)n1cc(Oc2nc(O)c3ccncc3n2)cn1 [Example 118, 2-({1-[(1S)-1-phenylethyl]-1H-pyrazol-4-yl}oxypyrido) [3,4-d]pyrimidin-4-ol]
25 | ≤ 100 | ≤ 100 | C[C@H](c1ccccc1F)n1cc(Oc2nc(O)c3ccncc3n2)cn1 [Example 119, 2-({1-[(1R)-1-(2-fluorophenyl)ethyl]-1H-pyrazol-4-yl}oxy)pyrido[3,4-d]pyrimidin-4-ol]
26 | ≤ 100 | ≤ 100 | C[C@@H](c1ccccc1F)n1cc(Oc2nc(O)c3ccncc3n2)cn1 [Example 120, 2-({1-[(1s)-1-(2-fluorophenyl)ethyl]-1H-pyrazol-4-yl}oxy)pyrido[3,4-d]pyrimidin-4-ol]
27 | ≤ 100 | ≤ 100 | Oc1nc(Oc2cnn(Cc3ccccc3Cl)c2)nc2cnccc12 [Example 121, 2-({1-[(2-chlorophenyl)methyl]-1H-pyrazol-4-yl}oxy)pyrido[3,4-d]pyrimidin-4-ol]
28 | ≤ 100 | ≤ 100 | Oc1nc(Oc2cnn(Cc3cccc(Cl)c3)c2)nc2cnccc12 [Example 122, 2-({1-[(3-chlorophenyl)methyl]-1H-pyrazol-4-yl}oxy)pyrido[3,4-d]pyrimidin-4-ol]
29 | ≤ 100 | ≤ 100 | Oc1nc(Oc2cnn(C3CCN(Cc4ccccc4)CC3)c2)nc2cnccc12 [Example 123, 2-{[1-(1-benzylpiperidin-4-yl)-1H-pyrazol-4-yl]oxy}pyrido[3,4-d]pyrimidin-4-ol]
30 | ≤ 100 | ≤ 100 | Oc1nc(Oc2cnn(CCN3CCOCC3)c2)nc2cnccc12 [Example 124, 2-({1-[2-(morpholin-4-yl)ethyl]-1H-pyrazol-4-yl}oxy)pyrido[3,4-d]pyrimidin-4-ol]

From US10526327B2, “Histone demethylase inhibitors” (CELGENE QUANTICEL RESEARCH, INC., priority 2013, dated 2020)
